Results as given in PubChem BioAssay AID330 (DTP/NCI, 2004).
“And” between values parts separate entries of the source, which are not always exact repeats. Equal entries are not always repeated. Inconclusive results and toxic doses are left out.

Tested on: P388 leukemia ip, CD2F1 mice, survival T/C
Test: NCI In Vivo Anticancer Drug Screen. Data for tumor model P388 Leukemia (intraperitoneal) in CD2F1 (CDF1) mice
Details: endpoint: median survival time, higher = longer survival
Outline: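 Mice carrying the transplanted tumor received test compound or vehicle. Survival was recorded in each group, and the value is the treated-group measurement divided by that of the vehicle-treated control group.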

[1] = dose: 50.0 mg/kg/injection, schedule: Q01DX005 (ip), vehicle: Klucel (hydroxypropylcellulose) (HPC)
[2] = dose: 100.0 mg/kg/injection, schedule: Q01DX005 (ip), vehicle: Klucel (hydroxypropylcellulose) (HPC)
[3] = dose: 50.0 mg/kg/injection, schedule: Q04DX003 (ip), vehicle: saline with Tween-80
[4] = dose: 100.0 mg/kg/injection, schedule: Q04DX003 (ip), vehicle: saline with Tween-80
[5] = dose: 200.0 mg/kg/injection, schedule: Q04DX003 (ip), vehicle: saline with Tween-80
[6] = dose: 400.0 mg/kg/injection, schedule: Q04DX003 (ip), vehicle: saline with Tween-80

Structure (SMILES): Clc1ccc2c(ccc3ccc(Cl)nc32)n1
- T/C (dose: 25.0 mg/kg/injection, schedule: Q04DX002 (ip), vehicle: saline with Tween-80): 100 % of control
- T/C (dose: 50.0 mg/kg/injection, schedule: Q04DX002 (ip), vehicle: saline with Tween-80): 98 % of control
- T/C (dose: 100.0 mg/kg/injection, schedule: Q04DX002 (ip), vehicle: saline with Tween-80): 89 % of control

Structure (SMILES): COc1cc(N)c(S(=O)(=O)O)cc1N=N/C(=N/Nc1cc(S(=O)(=O)O)c(N)cc1OC)C(=O)Nc1ccccc1
- T/C [1]: 107 % of control
- T/C [2]: 104 % of control
- T/C (dose: 200.0 mg/kg/injection, schedule: Q01DX005 (ip), vehicle: Klucel (hydroxypropylcellulose) (HPC)): 109 % of control

Structure (SMILES): Nc1nc2ncc(CN(C(=O)CCCl)c3ccc(C(=O)NC(CCC(=O)O)C(=O)O)cc3)nc2c(=O)[nH]1 (stereo unspecified)
- T/C (dose: 50.0 mg/kg/injection, schedule: Q01DX009 (ip), vehicle: alkali diluted with saline): 100 % of control
- T/C (dose: 100.0 mg/kg/injection, schedule: Q01DX009 (ip), vehicle: alkali diluted with saline): 108 % of control
- T/C (dose: 200.0 mg/kg/injection, schedule: Q01DX009 (ip), vehicle: alkali diluted with saline): 101 % of control

Structure (SMILES): Cc1c(COC(=O)NC(C)C)c(COC(=O)NC(C)C)c(-c2ccccc2)n1-c1ccccc1
- T/C (dose: 50.0 mg/kg/injection, schedule: Q01DX005 (ip), vehicle: saline with Tween-80): 188 % of control and 192 % of control

Structure (SMILES): CC1CCCC(C)N1NC1=NCCO1 (stereo unspecified)
- T/C (dose: 25.0 mg/kg/injection, schedule: Q04DX003 (ip), vehicle: saline with Tween-80): 104 % of control
- T/C [3]: 95 % of control

Structure (SMILES): CC1(C)OCC2OC=CC(=O)C2O1 (stereo unspecified)
- T/C [3]: 108 % of control
- T/C [4]: 101 % of control
- T/C (dose: 100.0 mg/kg/injection, schedule: Q04DX003 (ip), vehicle: saline): 108 % of control
- T/C [5]: 111 % of control
- T/C (dose: 200.0 mg/kg/injection, schedule: Q04DX003 (ip), vehicle: saline): 104 % of control
- T/C [6]: 120 % of control
- T/C (dose: 400.0 mg/kg/injection, schedule: Q04DX003 (ip), vehicle: saline): 124 % of control

Structure (SMILES): O=c1[nH]cc(C(O)Cc2ccccc2)c(=O)[nH]1 (stereo unspecified)
- T/C (dose: 100.0 mg/kg/injection, schedule: Q01DX009 (ip), vehicle: saline with Tween-80): 104 % of control
- T/C (dose: 200.0 mg/kg/injection, schedule: Q01DX009 (ip), vehicle: saline with Tween-80): 100 % of control
- T/C (dose: 400.0 mg/kg/injection, schedule: Q01DX009 (ip), vehicle: saline with Tween-80): 100 % of control

Structure (SMILES): Cc1[nH]c(C(=O)O)cc(=O)c1C
- T/C (dose: 25.0 mg/kg/injection, schedule: Q01DX009 (ip), vehicle: other): 103 % of control
- T/C (dose: 50.0 mg/kg/injection, schedule: Q01DX009 (ip), vehicle: other): 103 % of control
- T/C (dose: 100.0 mg/kg/injection, schedule: Q01DX009 (ip), vehicle: other): 101 % of control
- T/C (dose: 200.0 mg/kg/injection, schedule: Q01DX009 (ip), vehicle: other): 99 % of control
- T/C (dose: 400.0 mg/kg/injection, schedule: Q01DX009 (ip), vehicle: other): 97 % of control

Structure (SMILES): Nc1[nH]c(=O)ncc1-c1ccc(Cl)cc1
- T/C (dose: 60.0 mg/kg/injection, schedule: Q01DX005 (ip), vehicle: saline with Tween-80): 97 % of control
- T/C (dose: 120.0 mg/kg/injection, schedule: Q01DX005 (ip), vehicle: saline with Tween-80): 96 % of control

Structure (SMILES): COC(=O)[C@H]1[C@H]2C[C@@H]3c4[nH]c5cc(OC)ccc5c4CCN3C[C@H]2C[C@@H](OC(=O)c2cc(OC)c(OC)c(OC)c2)[C@@H]1OC
- T/C (dose: 0.25 mg/kg/injection, schedule: Q01DX009 (ip), vehicle: Klucel (hydroxypropylcellulose) (HPC)): 100 % of control
- T/C (dose: 0.5 mg/kg/injection, schedule: Q01DX009 (ip), vehicle: Klucel (hydroxypropylcellulose) (HPC)): 97 % of control
- T/C (dose: 1.0 mg/kg/injection, schedule: Q01DX009 (ip), vehicle: Klucel (hydroxypropylcellulose) (HPC)): 97 % of control
- T/C (dose: 2.0 mg/kg/injection, schedule: Q01DX009 (ip), vehicle: Klucel (hydroxypropylcellulose) (HPC)): 95 % of control
- T/C (dose: 4.0 mg/kg/injection, schedule: Q01DX009 (ip), vehicle: Klucel (hydroxypropylcellulose) (HPC)): 96 % of control

Structure (SMILES): CCOP(O)(=S)OCC.[Tb]
- T/C (dose: 100.0 mg/kg/injection, schedule: Q04DX003 (ip), vehicle: Klucel (hydroxypropylcellulose) (HPC)): 92 % of control
- T/C (dose: 200.0 mg/kg/injection, schedule: Q04DX003 (ip), vehicle: Klucel (hydroxypropylcellulose) (HPC)): 87 % of control
- T/C (dose: 400.0 mg/kg/injection, schedule: Q04DX003 (ip), vehicle: Klucel (hydroxypropylcellulose) (HPC)): 90 % of control

Structure (SMILES): CC(=O)OC1CCC2(C)C(CCC3C2CCC2(C)C3CC(CC(=O)O)C2OC(C)=O)C1 (stereo unspecified)
- T/C (dose: 25.0 mg/kg/injection, schedule: Q01DX009 (ip), vehicle: Klucel (hydroxypropylcellulose) (HPC)): 92 % of control
- T/C (dose: 50.0 mg/kg/injection, schedule: Q01DX009 (ip), vehicle: Klucel (hydroxypropylcellulose) (HPC)): 92 % of control
- T/C (dose: 100.0 mg/kg/injection, schedule: Q01DX009 (ip), vehicle: Klucel (hydroxypropylcellulose) (HPC)): 93 % of control
- T/C (dose: 200.0 mg/kg/injection, schedule: Q01DX009 (ip), vehicle: Klucel (hydroxypropylcellulose) (HPC)): 97 % of control

Structure (SMILES): CCCCCCC(=O)CC(SCCO)c1ccc(Cl)c(Cl)c1 (stereo unspecified)
- T/C (dose: 100.0 mg/kg/injection, schedule: Q04DX003 (ip), vehicle: suspension in saline): 99 % of control
- T/C (dose: 200.0 mg/kg/injection, schedule: Q04DX003 (ip), vehicle: suspension in saline): 104 % of control
- T/C (dose: 400.0 mg/kg/injection, schedule: Q04DX003 (ip), vehicle: suspension in saline): 104 % of control

Structure (SMILES): CNC(=O)OCc1c(COC(=O)NC)c(-c2ccccc2)n(C)c1-c1ccccc1
- T/C (dose: 10.0 mg/kg/injection, schedule: Q01DX009 (ip), vehicle: distilled water + Tween-80): 164 % of control
- T/C (dose: 12.5 mg/kg/injection, schedule: Q01DX009 (ip), vehicle: distilled water + Tween-80): 181 % of control
- T/C (dose: 20.0 mg/kg/injection, schedule: Q01DX009 (ip), vehicle: distilled water + Tween-80): 205 % of control
- T/C (dose: 40.0 mg/kg/injection, schedule: Q01DX009 (ip), vehicle: distilled water + Tween-80): 124 % of control

Structure (SMILES): CCc1nc(-c2ccccc2)c(-c2ccccc2)[nH]1
- T/C [4]: 90 % of control
- T/C [5]: 90 % of control
- T/C [6]: 95 % of control

Structure (SMILES): CCOCCC(=O)NCC(=O)NC1C(C)OC(Nc2ncnc3nc[nH]c23)C(O)C1O (stereo unspecified)
- T/C (dose: 3.12 mg/kg/injection, schedule: Q01DX009 (ip), vehicle: water): 94 % of control
- T/C (dose: 6.25 mg/kg/injection, schedule: Q01DX009 (ip), vehicle: water): 100 % of control
- T/C (dose: 12.5 mg/kg/injection, schedule: Q01DX009 (ip), vehicle: water): 96 % of control
- T/C (dose: 25.0 mg/kg/injection, schedule: Q01DX009 (ip), vehicle: water): 116 % of control
- T/C (dose: 50.0 mg/kg/injection, schedule: Q01DX009 (ip), vehicle: water): 100 % of control

Structure (SMILES): Cc1ccc(C)c2c1C(O)(C#Cc1ccccc1)c1c(C)ccc(C)c1C2(O)C#Cc1ccccc1 (stereo unspecified)
- T/C (dose: 25.0 mg/kg/injection, schedule: Q01DX005 (ip), vehicle: Klucel (hydroxypropylcellulose) (HPC)): 90 % of control
- T/C [1]: 93 % of control
- T/C [2]: 86 % of control

Structure (SMILES): COc1cc2c(cc1OC)-c1ccc(OC)c(=O)cc1CC(NC(=O)C(C)=O)C2 (stereo unspecified)
- T/C (dose: 0.63 mg/kg/injection, schedule: Q01DX009 (ip), vehicle: Klucel (hydroxypropylcellulose) (HPC)): 153 % of control
- T/C (dose: 1.25 mg/kg/injection, schedule: Q01DX009 (ip), vehicle: Klucel (hydroxypropylcellulose) (HPC)): 105 % of control
- T/C (dose: 78.0 micrograms/kg/injection, schedule: Q01DX009 (ip), vehicle: Klucel (hydroxypropylcellulose) (HPC)): 120 % of control
- T/C (dose: 625.0 micrograms/kg/injection, schedule: Q01DX009 (ip), vehicle: Klucel (hydroxypropylcellulose) (HPC)): 151 % of control

Structure (SMILES): CC(=O)OC1CC2CC1C1C3C=CC(C3)C21 (stereo unspecified)
- T/C (dose: 25.0 mg/kg/injection, schedule: Q01DX009 (ip), vehicle: saline with Tween-80): 100 % of control
- T/C (dose: 50.0 mg/kg/injection, schedule: Q01DX009 (ip), vehicle: saline with Tween-80): 104 % of control
- T/C (dose: 100.0 mg/kg/injection, schedule: Q01DX001 (ip), vehicle: saline): 100 % of control
- T/C (dose: 200.0 mg/kg/injection, schedule: Q01DX001 (ip), vehicle: saline): 91 % of control
- T/C (dose: 400.0 mg/kg/injection, schedule: Q01DX001 (ip), vehicle: saline): 95 % of control

Structure (SMILES): NC(CCl)C(=O)O (stereo unspecified)
- T/C (dose: 50.0 mg/kg/injection, schedule: Q01DX005 (ip), vehicle: saline): 100 % of control
- T/C (dose: 100.0 mg/kg/injection, schedule: Q01DX005 (ip), vehicle: saline): 100 % of control
- T/C (dose: 200.0 mg/kg/injection, schedule: Q01DX005 (ip), vehicle: saline): 100 % of control
